The subject of one data set is NRF2 gene. Description: Genomic DNA PCR assessment of large deletions in NRF2 gene. In kind it is cell-based, Human. To be noted: gRNA alone, not paired. As to the method: After CRISPR reactions, genomic DNA was prepared for PCR amplification of the target region from NRF2 gene. PCR-amplified DNA was then analyzed by electrophoresis through a 1% agarose gel for 75 minutes at 80v. DNA was stained with SYBR Safe. Lanes 1 and 12: NEB 2 Log Ladder; Lane 2: Scrambled gRNA; Lane 3: R34G gRNA alone; Lane 4: NRF2 3-4 SureKill gRNA 3 alone; Lane 5: NRF2 3-4 SureKill gRNA 12 alone; Lane 6: NRF2 3-4 SureKill gRNA 14 alone; Lane 7: NRF2 3-4 SureKill gRNA 15 alone; Lane 8: NRF2 3-4 SureKill gRNA 3+R34G gRNA; Lane 9: NRF2 3-4 SureKill gRNA 12+R34G gRNA; Lane 10: NRF2 3-4 SureKill gRNA 14+R34G gRNA; Lane 11: NRF2 3-4 SureKill gRNA 15+R34G gRNA. On the left side of the image are markers indicating DNA size in bp. Expected dropout size for NRF2 3-4 SureKill gRNA 3+R34G gRNA: 676 bp. Expected dropout size for NRF2 3-4 SureKill gRNA 12+R34G gRNA: 658 bp. Expected dropout size for NRF2 3-4 SureKill gRNA 14+R34G gRNA: 582 bp. Expected dropout size for NRF2 3-4 SureKill gRNA 15+R34G gRNA: 515 bp. Dropout bands are indicated by asterisks.
Human lung squamous cell carcinoma NCI-H1703 clone 44-25 cells were derived from NCI-H1703 cells (#CRL-5889) which were purchased from ATCC (Manassas, VA, USA). […]
(§1) Transfections were carried out using the Lonza Nuclefector 4d. […] RNPs were complexed at 250:50 pmol for 30 minutes prior to transfection, during which time cells were harvested and counted. […]

The next data set has as its system EGFR gene. Description: Genomic DNA PCR assessment of large deletions in EGFR gene. The data set is classed as cell-based, Human. The conditions noted are these: gRNA alone, not paired. As to the method:
After CRISPR reactions, genomic DNA was prepared for PCR amplification of the target region from EGFR gene. PCR-amplified DNA was then analyzed by electrophoresis through a 1% agarose gel for 75 minutes at 80v. DNA was stained with SYBR Safe. Lanes 1 and 10: NEB 2 Log Ladder; Lane 2: Scrambled gRNA; Lane 3: L858R gRNA alone; Lane 4: EGFR 21-22 SureKill gRNA 19 alone; Lane 5: EGFR 21-22 SureKill gRNA 27 alone; Lane 6: EGFR 21-22 SureKill gRNA 28+L858R gRNA; Lane 7: EGFR 21-22 SureKill gRNA 27+L858R gRNA; Lane 8: EGFR 21-22 SureKill gRNA 19+L858R gRNA; Lane 9: EGFR 21-22 SureKill gRNA 28 alone. On the left side of the image are markers indicating DNA size in bp. Expected dropout size of EGFR 21-22 SureKill gRNA 19+L858R gRNA: 316 bp. Expected dropout size of EGFR 21-22 SureKill gRNA 27+L858R gRNA: 417 bp. Expected dropout size of EGFR 21-22 SureKill gRNA 28+L858R gRNA: 463 bp. Dropout bands are indicated by asterisks.
Human lung squamous cell carcinoma NCI-H1703 clone 44-25 cells were derived from NCI-H1703 cells (#CRL-5889) which were purchased from ATCC (Manassas, VA, USA). NCI-H1703 clone 44-25 cells contains R34G mutation (C 4 G) in NFE2L2 gene. […]
as §1

“R34G gRNA: guide RNA GATATAGATCTTGGAGTAAG, SEQ ID NO:1, targets NRF2 R34G mutation (listed as DNA, chemistry not given here)”: the “large deletions (genomic DNA PCR)” value with NRF2 gene was “does not induce a large deletion”.

As for “L858R gRNA: guide RNA TCAAGATCACAGATTTTGGG, SEQ ID NO:8, targets EGFR L858R mutation (listed as DNA, chemistry not given here)”, the “large deletions (genomic DNA PCR)” value in the data set with EGFR gene was “does not induce a large deletion”.
